Patent US10988477B2 (Merck Patent GmbH, priority 2018, dated 2021)
Where two headings read alike, the source gives them in different places.

Legend:
GCN2 kinase = GCN2 kinase (Homo sapiens, UniProt Q9P2K8); assay: GCN2 enzyme inhibition assay (Transcreener ADP2 fluorescence polarization); format: biochemical; settings: 280 μM ATP
Method in brief: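 FP detection of ADP (antibody plus Alexa633 tracer) after a 1 h, 25 °C kinase reaction. Enzyme 4 nM, ATP 280 μM, (RS)7 peptide 200 μM, Tris pH 7.5 buffer with MgCl2 and DTT. Percent inhibition fitted by non-linear tight-binding algorithm for IC50 and Ki(app).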

[1] = molecular target: intracellular GCN2 (phosphorylation of the GCN2 substrate eIF2α) (Homo sapiens, UniProt Q9P2K8); assay: GCN2 cellular inhibition assay (AlphaScreen SureFire P-eIF2α Ser51, borrelidin-treated U2OS cells); format: cell-based
Method in brief: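 Phospho-eIF2α (Ser51) in lysates was quantified by AlphaScreen SureFire after a 1 h, 37 °C treatment of U2OS cells with 10 μM borrelidin and compound at 4-fold dilutions starting from 40 μM final. Inhibition expressed in percent against wells stimulated by borrelidin alone.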

[2] = Enzyme activity for compounds of Formula IV, Ki(app), 25° C.
[3] = compounds of Formula IV, biomarker assay, phosphorylated eIF2α Ser51 in borrelidin-treated U2OS cells
[4] = compounds of Formula II, 4 nM GCN2 kinase
[5] = compounds of Formula II, biomarker assay, phosphorylated eIF2α Ser51 in borrelidin-treated U2OS cells

Chain of intracellular GCN2 (phosphorylation of the GCN2 substrate eIF2α) (Q9P2K8 whole entry): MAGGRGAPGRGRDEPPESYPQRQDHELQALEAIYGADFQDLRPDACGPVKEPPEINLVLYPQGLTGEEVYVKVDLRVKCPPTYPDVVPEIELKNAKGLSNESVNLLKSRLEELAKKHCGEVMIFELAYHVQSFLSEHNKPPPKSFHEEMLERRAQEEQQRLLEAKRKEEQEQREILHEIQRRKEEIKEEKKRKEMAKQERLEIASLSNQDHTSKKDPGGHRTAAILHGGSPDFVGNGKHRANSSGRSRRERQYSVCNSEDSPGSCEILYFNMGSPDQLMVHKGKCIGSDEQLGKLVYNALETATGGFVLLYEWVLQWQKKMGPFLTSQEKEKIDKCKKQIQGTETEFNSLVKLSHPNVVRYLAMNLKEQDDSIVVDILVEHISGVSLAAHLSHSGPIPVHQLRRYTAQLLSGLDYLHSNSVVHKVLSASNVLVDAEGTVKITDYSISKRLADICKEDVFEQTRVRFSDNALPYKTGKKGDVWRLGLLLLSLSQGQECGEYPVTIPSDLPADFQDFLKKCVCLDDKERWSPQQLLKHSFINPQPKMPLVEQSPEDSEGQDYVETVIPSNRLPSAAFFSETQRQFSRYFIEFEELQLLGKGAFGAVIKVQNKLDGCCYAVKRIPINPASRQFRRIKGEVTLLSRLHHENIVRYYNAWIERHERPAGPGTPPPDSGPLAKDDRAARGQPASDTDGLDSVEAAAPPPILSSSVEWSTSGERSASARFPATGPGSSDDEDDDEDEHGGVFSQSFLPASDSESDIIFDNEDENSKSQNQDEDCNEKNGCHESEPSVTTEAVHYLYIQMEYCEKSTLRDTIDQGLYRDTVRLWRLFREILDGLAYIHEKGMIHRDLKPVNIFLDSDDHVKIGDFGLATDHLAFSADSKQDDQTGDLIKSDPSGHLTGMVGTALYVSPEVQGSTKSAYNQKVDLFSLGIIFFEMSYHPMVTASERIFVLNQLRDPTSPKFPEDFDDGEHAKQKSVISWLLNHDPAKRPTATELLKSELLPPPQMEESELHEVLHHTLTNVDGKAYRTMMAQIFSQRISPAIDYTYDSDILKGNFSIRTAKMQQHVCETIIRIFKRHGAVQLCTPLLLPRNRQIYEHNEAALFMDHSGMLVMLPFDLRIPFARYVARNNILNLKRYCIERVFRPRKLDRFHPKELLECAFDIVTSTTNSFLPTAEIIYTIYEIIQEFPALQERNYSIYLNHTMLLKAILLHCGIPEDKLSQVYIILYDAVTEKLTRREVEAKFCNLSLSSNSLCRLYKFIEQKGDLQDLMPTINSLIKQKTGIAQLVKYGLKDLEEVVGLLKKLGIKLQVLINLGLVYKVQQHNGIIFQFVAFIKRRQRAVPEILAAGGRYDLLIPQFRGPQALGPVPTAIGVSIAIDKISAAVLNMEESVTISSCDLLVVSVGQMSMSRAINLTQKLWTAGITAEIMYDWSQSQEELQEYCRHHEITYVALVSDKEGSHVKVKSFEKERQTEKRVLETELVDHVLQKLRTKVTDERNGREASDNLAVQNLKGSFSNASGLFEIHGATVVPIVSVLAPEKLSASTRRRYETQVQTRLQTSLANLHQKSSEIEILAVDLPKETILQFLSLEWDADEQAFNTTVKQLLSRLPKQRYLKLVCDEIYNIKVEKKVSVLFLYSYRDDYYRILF
Chain of GCN2 kinase (Q9P2K8 whole entry): as above

| Compound | Ki (GCN2 kinase; [2]) [nM] | IC50 [1, 3] [nM] | Ki (GCN2 kinase; [4]) [nM] | IC50 [1, 5] [nM] | further results |
| --- | --- | --- | --- | --- | --- |
| CS(C)(=O)=NC1CC(c2cn[nH]c2)CN(c2ccnc(-c3cnc4cnc(C(F)(F)F)cn34)n2)C1 (single isomer, unassigned) [IV-399, ((5-(1H-Pyrazol-4-yl)-1-(2-(6-(trifluoromethyl)imidazo[1,2-a]pyrazin-3-yl)pyrimidin-4-yl)piperidin-3-yl)imino)dimethyl-λ^6-sulfanone] | < 10 | 500 to 5000 |  |  |  |
| Cc1n[nH]cc1C1=CCCN(c2ccnc(-c3cnc4cnc(C(F)F)cn34)n2)C1 [IV-96, 6-(Difluoromethyl)-3-(4-(5-(3-methyl-1H-pyrazol-4-yl)-3,6-dihydropyridin-1 (2H)-yl)pyrimidin-2-yl)imidazo[1,2-a]pyrazine] | 10 to 100 | 500 to 5000 |  |  |  |
| NS(=O)(=O)C1CCCN(c2ccnc(-c3cnc4cnc(C(F)F)cn34)n2)C1 (stereo not shown) [IV-177, 1-(2-(6-(Difluoromethyl)imidazo[1,2-a]pyrazin-3-yl)pyrimidin-4-yl)piperidine-3-sulfonamide] | 100 to 1000 | > 5000 |  |  |  |
| FC(F)c1cn2c(-c3nccc(N4CCC5(CCC5)C4)n3)cnc2cn1 [IV-75, 3-[4-(6-Azaspiro[3.4]octan-6-yl)pyrimidin-2-yl]-6-(difluoromethyl)imidazo[1,2-a]pyrazine] | 100 to 1000 | > 5000 |  |  |  |
| CC1CC(C(N)=O)C(C)N(c2cc(-c3cnc4ccc(C(F)(F)F)nn34)ncn2)C1 (racemic) [II-719, 2,5-Dimethyl-1-[6-[6-(trifluoromethyl)imidazo[1,2-b]pyridazin-3-yl]pyrimidin-4-yl]piperidine-3-carboxamide] |  |  | 10 to 1000 | 500 to 5000 |  |
| CNc1cc(-c2cnc3ccc(C(F)F)nn23)cc(N2CC(C)C(F)(F)C(CNS(C)(=O)=O)C2)n1 (stereo not shown) [II-65, N-((1-(4-(6-(Difluoromethyl)imidazo[1,2-b]pyridazin-3-yl)-6-(methylamino)pyridin-2-yl)-4,4-difluoro-5-methylpiperidin-3-yl)methyl)methanesulfonamide] |  |  | < 10 | 500 to 5000 |  |
| CC(C)(O)C1CC(c2cn[nH]c2)CN(c2ccnc(-c3cnc4cnc(C(F)(F)F)cn34)n2)C1 (single isomer, unassigned) [IV-683, 2-(5-(1H-Pyrazol-4-yl)-1-(2-(6-(trifluoromethyl)imidazo[1,2-a]pyrazin-3-yl)pyrimidin-4-yl)piperidin-3-yl)propan-2-ol] | 10 to 100 | 500 to 5000 |  |  |  |
| CC1(O)CCN(c2cc(-c3cnc4ccc(C(F)F)nn34)ncn2)CC1CNS(C)(=O)=O (stereo not shown) [II-240, N-((1-(6-(6-(Difluoromethyl)imidazo[1,2-b]pyridazin-3-yl)pyrimidin-4-yl)-4-hydroxy-4-methylpiperidin-3-yl)methyl)methanesulfonamide] |  |  | < 10 | < 500 |  |
| OCC1CC(c2cn[nH]c2)CN(c2ccnc(-c3cnc4cnc(C(F)(F)F)cn34)n2)C1 (stereo not shown) [IV-359, (5-(1H-Pyrazol-4-yl)-1-(2-(6-(trifluoromethyl)imidazo[1,2-a]pyrazin-3-yl)pyrimidin-4-yl)piperidin-3-yl)methanol] | < 10 | < 500 |  |  |  |
| CC1CN(c2cc(-c3cnc4ccc(C(F)F)nn34)ncn2)CC(CNS(C)(=O)=O)=C1F (stereo not shown) [II-537, N-((1-(6-(6-(Difluoromethyl)imidazo[1,2-b]pyridazin-3-yl)pyrimidin-4-yl)-4-fluoro-5-methyl-1,2,5,6-tetrahydropyridin-3-yl)methyl)methanesulfonamide] |  |  | < 10 | < 500 |  |
| OCC12CC1CN(c1cc(-c3cnc4ccc(C(F)F)nn34)ncn1)C2 (stereo not shown) [II-438, (3-(6-(6-(Difluoromethyl)imidazo[1,2-b]pyridazin-3-yl)pyrimidin-4-yl)-3-azabicyclo[3.1.0]hexan-1-yl)methanol] |  |  | 10 to 1000 | 500 to 5000 |  |
| CC1C(CNS(C)(=O)=O)CCCN1c1cc(-c2cnc3ccc(C(F)F)nn23)ncn1 (stereo not shown) [II-221, N-((1-(6-(6-(Difluoromethyl)imidazo[1,2-b]pyridazin-3-yl)pyrimidin-4-yl)-2-methylpiperidin-3-yl)methyl)methanesulfonamide] |  |  | < 10 | < 500 |  |
| OCC1CCCCN(c2ccnc(-c3cnc4cnc(C(F)F)cn34)n2)C1 (stereo not shown) [IV-88, (1-(2-(6-(Difluoromethyl)imidazo[1,2-a]pyrazin-3-yl)pyrimidin-4-yl)azepan-3-yl)methanol] | 100 to 1000 | > 5000 |  |  |  |
| OCCC1CCN(c2cc(-c3cnc4ccc(C(F)F)nn34)ccn2)CC1 [II-168, 2-(1-(4-(6-(Difluoromethyl)imidazo[1,2-b]pyridazin-3-yl)pyridin-2-yl)piperidin-4-yl)ethanol] |  |  | 10 to 1000 | 500 to 5000 |  |
| CS(=O)(=O)NCC1CCCN(c2cc(-c3cnc4ccc(C(F)F)nn34)cnc2C#N)C1 (stereo not shown) [II-117, N-((1-(2-Cyano-5-(6-(difluoromethyl)imidazo[1,2-b]pyridazin-3-yl)pyridin-3-yl)piperidin-3-yl)methyl)methanesulfonamide] |  |  | 10 to 1000 | 500 to 5000 |  |
| O=C1CN(c2cc(-c3cnc4ccc(C(F)F)nn34)ccn2)CCN1 [II-62, 4-(4-(6-(Difluoromethyl)imidazo[1,2-b]pyridazin-3-yl)pyridin-2-yl)piperazin-2-one] |  |  | 10 to 1000 | > 5000 |  |
| CNC(=O)C1CCCN(c2ccnc(-c3cnc4cnc(C(F)F)cn34)n2)C1 (stereo not shown) [IV-44, 1-(2-(6-(Difluoromethyl)imidazo[1,2-a]pyrazin-3-yl)pyrimidin-4-yl)-N-methylpiperidine-3-carboxamide] | 100 to 1000 | > 5000 |  |  |  |
| CS(=O)(=O)NCC1CC(O)CN(c2cc(-c3cnc4ccc(C(F)F)nn34)ncn2)C1 (stereo not shown) [II-13, N-((1-(6-(6-(Difluoromethyl)imidazo[1,2-b]pyridazin-3-yl)pyrimidin-4-yl)-5-hydroxypiperidin-3-yl)methyl)methanesulfonamide] |  |  | < 10 | 500 to 5000 |  |
| CS(=O)(=O)NC[C@@H]1CN(c2cc(-c3cnc4ccc(C(F)F)nn34)ncn2)C[C@H](C(F)(F)F)O1 [II-331, N-(((2S,6R)-4-(6-(6-(Difluoromethyl)imidazo[1,2-b]pyridazin-3-yl)pyrimidin-4-yl)-6-(trifluoromethyl)morpholin-2-yl)methyl)methanesulfonamide] |  |  | < 10 | < 500 |  |
| NC(=O)[C@H]1CCCN(c2ccnc(-c3cnc4sc(C(F)(F)F)cn34)n2)C1 [Compound V-10, (3S)-1-[2-[2-(Trifluoromethyl)imidazo[2,1-b]thiazol-5-yl]pyrimidin-4-yl]piperidine-3-carboxamide] |  |  |  |  | Ki (GCN2 kinase; compounds of Formula V, 4 nM GCN2 kinase): < 10 nM; IC50 ([1]; compounds of Formula V, U2OS cells, 10 μM borrelidin, 1 h, read-out: GCN2 Biomarker (IC50)): < 500 nM |
| CN(CC1CC(O)CN(c2cc(-c3cnc4ccc(C(F)F)nn34)ncn2)C1)S(C)(=O)=O (stereo not shown) [II-235, N-((1-(6-(6-(Difluoromethyl)imidazo[1,2-b]pyridazin-3-yl)pyrimidin-4-yl)-5-hydroxypiperidin-3-yl)methyl)-N-methylmethanesulfonamide] |  |  | 10 to 1000 | 500 to 5000 |  |
| C[C@@H]1CCCN(c2ccnc(-c3cnc4cnc(C(F)F)cn34)n2)C1 [IV-129, (R)-6-(Difluoromethyl)-3-(4-(3-methylpiperidin-1-yl)pyrimidin-2-yl)imidazo[1,2-a]pyrazine] | 100 to 1000 | > 5000 |  |  |  |
| CC1CN(c2cc(-c3cnc4ccc(C(F)(F)F)nn34)ncn2)C(C)C(c2cn[nH]c2)N1 (stereo not shown) [II-704, 3-(6-(2,5-Dimethyl-3-(1H-pyrazol-4-yl)piperazin-1-yl)pyrimidin-4-yl)-6-(trifluoromethyl)imidazo[1,2-b]pyridazine] |  |  | 10 to 1000 | > 5000 |  |
